# Molecular target: T1, human NK3 receptor (Homo sapiens, UniProt P29371)
# T1 construct: expressed in transfected cells; host or cells: HEK293 cells, transiently transfected; membranes
# T1 sequence (P29371 1-465): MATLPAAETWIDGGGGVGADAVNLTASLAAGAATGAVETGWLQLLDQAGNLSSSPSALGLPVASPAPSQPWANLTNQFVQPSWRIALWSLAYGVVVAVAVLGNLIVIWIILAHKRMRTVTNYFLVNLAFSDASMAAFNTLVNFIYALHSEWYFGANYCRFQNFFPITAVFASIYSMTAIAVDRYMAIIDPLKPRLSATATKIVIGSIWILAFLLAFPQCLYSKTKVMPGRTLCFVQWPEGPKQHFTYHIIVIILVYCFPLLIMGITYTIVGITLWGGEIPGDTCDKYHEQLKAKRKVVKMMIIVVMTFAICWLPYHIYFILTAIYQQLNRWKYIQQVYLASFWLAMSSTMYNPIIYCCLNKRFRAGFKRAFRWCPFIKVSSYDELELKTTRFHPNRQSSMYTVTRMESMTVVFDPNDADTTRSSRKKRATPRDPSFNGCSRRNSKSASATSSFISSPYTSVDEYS
# Experiment: [3H]SR142801 competition binding assay
# Settings: hNK3 Ki, [3H]SR142801 displacement, membranes of HEK293 cells transiently expressing recombinant human NK3 receptor
# Description: [^3H]SR142801 Competition Binding Assay
# hNK3 receptor binding experiment were performed using [^3H]SR142801 (Catalog No. TRK1035, specific activity: 74.0 Ci/mmol, Amersham, GE Healthcare UK limited, Buckinghamshire, UK) and membrane isolated from HEK293 cells transiently expressing recombinant human NK3 receptor. After thawing, the membrane homogenates were centrifuged at 48,000×g for 10 min at 4° C., the pellets were resuspended in the 50 mM Tris-HCl, 4 mM MnCl2, 1 μM phosphoramidon, 0.1% BSA binding buffer at pH 7.4 to a final assay concentration of 5 μg protein/well. For inhibition experiments, membranes were incubated with [^3H]SR142801 at a concentration equal to KD value of radioligand and 10 concentrations of the inhibitory compound (0.0003-10 μM) (in a total reaction volume of 500 μl) for 75 min at room temperature (RT). At the end of the incubation, membranes were filtered onto unitfilter (96-well white microplate with bonded GF/C filter preincubated 1 h in 0.3% PEI+0.3% BSA, Packard BioScience, Meriden, Conn.) with a Filtermate 196 harvester (Packard BioScience) and washed 4 times with ice-cold 50 mM Tris-HCl, pH 7.4 buffer. Nonspecific binding was measured in the presence of 10 μM SB222200 for both radioligands. The radioactivity on the filter was counted (5 min) on a Packard Top-count microplate scintillation counter with quenching correction after addition of 45 μl of microscint 40 (Canberra Packard S.A., Zürich, Switzerland) and shaking for 1 h. Inhibition curves were fitted according to the Hill equation: y=100/(1+(x/IC50)^nH), where nH=slope factor using Excel-fit 4 software (Microsoft). IC50 values were derived from the inhibition curve and the affinity constant (Ki) values were calculated using the Cheng-Prussoff equation Ki=IC50/(1+[L]/KD) where [L] is the concentration of radioligand and KD is its dissociation constant at the receptor, derived from the saturation isotherm. All experiments were performed in duplicate and the mean±standard error (SEM) of the individual Ki values was calculated.
smiles,measurement,value
"CN(Cc1cccc(F)c1)C(=O)C(CCN1CCC2(CC1)OC(=O)Nc1ccc(F)cc12)c1ccc(Cl)c(Cl)c1 (centres unmarked) [Example 76, 2-(3,4-dichlorophenyl)-N-(3-fluorobenzyl)-4-(6-fluoro-2-oxo-1,2-dihydro-1′H-spiro[3,1-benzoxazine-4,4′-piperidin]-1′-yl)-N-methylbutanamide]",Ki,4.6 nM
"Cc1ccc(CN(C)C(=O)C(CCN2CCC3(CC2)OC(=O)Nc2ccc(F)cc23)c2ccc(Cl)c(Cl)c2)cc1 (centres unmarked) [Example 77, 2-(3,4-dichlorophenyl)-4-(6-fluoro-2-oxo-1,2-dihydro-1′H-spiro[3,1-benzoxazine-4,4′-piperidin]-1′-yl)-N-methyl-N-(4-methylbenzyl)butanamide]",Ki,4.6 nM
"O=C1Nc2ccc(F)cc2C2(CCN(CCC(C(=O)NCc3cccc(OC(F)(F)F)c3)c3ccc(Cl)c(Cl)c3)CC2)O1 (centres unmarked) [Example 78, 2-(3,4-dichlorophenyl)-4-(6-fluoro-2-oxo-1,2-dihydro-1′H-spiro[3,1-benzoxazine-4,4′-piperidin]-1′-yl)-N-[(3-trifluoromethoxy)benzyl]butanamide]",Ki,15.4 nM
"CN(Cc1cccc(C(F)(F)F)c1)C(=O)C(CCN1CCC2(CC1)OC(=O)Nc1ccc(F)cc12)c1ccc(Cl)c(Cl)c1 (centres unmarked) [Example 79, 2-(3,4-dichlorophenyl)-4-(6-fluoro-2-oxo-1,2-dihydro-1′H-spiro[3,1-benzoxazine-4,4′-piperidin]-1′-yl)-N-methyl-N-[3-(trifluoromethyl)benzyl]butanamide]",Ki,6.6 nM
"CN(Cc1ccc(F)cc1)C(=O)C(CCN1CCC2(CC1)OC(=O)Nc1ccc(F)cc12)c1ccc(Cl)c(Cl)c1 (centres unmarked) [Example 80, 2-(3,4-dichlorophenyl)-N-(4-fluorobenzyl)-4-(6-fluoro-2-oxo-1,2-dihydro-1′H-spiro[3,1-benzoxazine-4,4′-piperidin]-1′-yl)-N-methylbutanamide]",Ki,4.4 nM
"O=C1Nc2ccc(F)cc2C2(CCN(CCC(C(=O)NCc3ccc(F)cc3)c3ccc(Cl)c(Cl)c3)CC2)O1 (centres unmarked) [Example 81, 2-(3,4-dichlorophenyl)-N-(4-fluorobenzyl)-4-(6-fluoro-2-oxo-1,2-dihydro-1′H-spiro[3,1-benzoxazine-4,4′-piperidin]-1′-yl)-butanamide]",Ki,11.6 nM
"COc1ccc(CNC(=O)C(CCN2CCC3(CC2)OC(=O)Nc2ccc(F)cc23)c2ccc(Cl)c(Cl)c2)cc1 (centres unmarked) [Example 82, 2-(3,4-dichlorophenyl)-4-(6-fluoro-2-oxo-1,2-dihydro-1′H-spiro[3,1-benzoxazine-4,4′-piperidin]-1′-yl)-N-(4-methoxybenzyl)butanamide]",Ki,19.7 nM
"O=C1Nc2ccc(F)cc2C2(CCN(CCC(C(=O)NCc3cccc(C(F)(F)F)c3)c3ccc(Cl)c(Cl)c3)CC2)O1 (centres unmarked) [Example 83, 2-(3,4-dichlorophenyl)-4-(6-fluoro-2-oxo-1,2-dihydro-1′H-spiro[3,1-benzoxazine-4,4′-piperidin]-1′-yl)-N-[3-(trifluoromethyl)benzyl]butanamide]",Ki,12.9 nM
"O=C1Nc2ccc(F)cc2C2(CCN(CCC(C(=O)NCc3ccc(-c4csnn4)cc3)c3ccc(Cl)c(Cl)c3)CC2)O1 (centres unmarked) [Example 84, 2-(3,4-dichlorophenyl)-4-(6-fluoro-2-oxo-1,2-dihydro-1′H-spiro[3,1-benzoxazine-4,4′-piperidin]-1′-yl)-N-[4-(1,2,3-thiadiazol-4-yl)benzyl]butanamide]",Ki,11.6 nM
"O=C1Nc2ccc(F)cc2C2(CCN(CCC(C(=O)NCc3ccc(OC(F)(F)F)cc3)c3ccc(Cl)c(Cl)c3)CC2)O1 (centres unmarked) [Example 85, 2-(3,4-dichlorophenyl)-4-(6-fluoro-2-oxo-1,2-dihydro-1′H-spiro[3,1-benzoxazine-4,4′-piperidin]-1′-yl)-N-[4-(trifluoromethoxy)benzyl]butanamide]",Ki,69.9 nM
"N#Cc1ccc(CNC(=O)C(CCN2CCC3(CC2)OC(=O)Nc2ccc(F)cc23)c2ccc(Cl)c(Cl)c2)cc1 (centres unmarked) [Example 86, N-(4-cyanobenzyl)-2-(3,4-dichlorophenyl)-4-(6-fluoro-2-oxo-1,2-dihydro-1′H-spiro[3,1-benzoxazine-4,4′-piperidin]-1′-yl)butanamide]",Ki,12.1 nM
